These results are taken from US20250011881A1, “MYC-HSF1 DUAL AMPLIFICATION AS A BIOMARKER FOR CANCER TREATMENT” (The Trustees of Indiana University, priority 2023, published 2025).

Structures can show the parent of a compound that is named as a salt.

The first experiment deals with ovarian cancer cells with (OVCAR8, OVCAR4) or without (OVSAHO, CAOV3) MYC-HSF1 amplification. The experiment in a line: Epigenetic inhibitor drug screen, cell viability (Cell Titer Blue). It counts as cell-based.
Conditions: not given
For the compound “(−)-Epigallocatechin gallate [(−)-Epigallocatechin gallate (EGCG)]”, the “Non Amp - AMP (POC) 10 uM” value stood at 4.98 POC.
On to Ginkgolide C, for which the “Non Amp - AMP (POC) 10 uM” value is −1.319 POC.
In the case of Oxamflatin, the “Non Amp - AMP (POC) 10 uM” value worked out at 24.33 POC.
Regarding Sodium Phenylbutyrate, the “Non Amp - AMP (POC) 10 uM” value is given as −19.07 POC.

The same experiment, now with this note: 10 µM.
With `COc1cc2c(NC3CCN(C(C)C)CC3)nc(N3CCC(F)(F)CC3)nc2cc1OCCCN1CCCC1` [UNC 0642], the “Non Amp - AMP (POC) 10 uM” value was 6.253 POC.

The same experiment, now with this note: 10 uM, 48 hrs; average relative cell viability (vs 1% DMSO) of non-amplified cells (OVSAHO, CAOV3) minus that of MYC-HSF1 amplified cells (OVCAR8, OVCAR4); positive = greater response in amplified cells.
Regarding `O=C(CCl)Nc1ccc(S(=O)(=O)c2ccc(NC(=O)CCl)cc2)cc1` [TC-E 5003], the “Non Amp - AMP (POC) 10 uM” value worked out at 0.7453 POC.
Consider `Cc1ccc(NC(=O)CCCCCC(=O)Nc2ccccc2N)cc1` [TC-H 106], for which the “Non Amp - AMP (POC) 10 uM” value came to 8.223 POC.
As for `N#Cc1c(-c2ccccc2)cc(-c2cc(Br)ccc2O)[nH]c1=O` [TCS PIM-1 1], the “Non Amp - AMP (POC) 10 uM” value amounted to 0.7424 POC.
With `Cc1cnc(Nc2ccc(N3CCN(C)CC3)cc2)nc1Nc1cccc(S(=O)(=O)NC(C)(C)C)c1` [TG101209], the “Non Amp - AMP (POC) 10 uM” value was found to be 15.1 POC.
On the same count and under the same terms, in the case of `Cc1cnc(Nc2ccc(OCCN3CCCC3)cc2)nc1Nc1cccc(S(=O)(=O)NC(C)(C)C)c1` [TG101348 (SAR302503)] it was −1.346 POC; in that of `O=C(NCC1(c2nc(-c3ccccc3)cs2)CCOCC1)c1cccc(-c2noc(C(F)(F)F)n2)c1` [TMP269], 16.29 POC.
On the same count and under the same terms, in the case of `CC(C)(CNC(=O)c1cccc(-c2noc(C(F)(F)F)n2)c1)c1coc(-c2ccccc2)n1` [TMP-195] it was 0.5425 POC.
Consider `N#Cc1ccc(OC2CCC(NC(=O)CCSc3nc4ccccc4c(=O)[nH]3)CC2)cc1` (stereo not drawn) [Tankyrase Inhibitors (TNKS) 49], for which the “Non Amp - AMP (POC) 10 uM” value is given as −7.406 POC.
`CN(C)CCCCC(=O)Nc1ccc(NC(=S)NC(=O)c2ccc(C(C)(C)C)cc2)cc1.Cl` [Tenovin-6 (hydrochloride), Tenovin-6]: the “Non Amp - AMP (POC) 10 uM” value was −3.503 POC.
Take `CN(C)CCCCC(=O)Nc1ccc(NC(=S)NC(=O)c2ccc(C(C)(C)C)cc2)cc1` [Tenovin-6]: the “Non Amp - AMP (POC) 10 uM” value was determined as 0.07933 POC.
As to `CCCCCCCCCCCCCC(=S)NCCCC[C@H](NC(=O)OCc1ccccc1)C(=O)Nc1ccccc1` [Thiomyristoyl], the “Non Amp - AMP (POC) 10 uM” value was −0.8381 POC.
`CCOC(=O)NNc1nncc2ccccc12` [Todralazine (hydrochloride), Todralazine]: the “Non Amp - AMP (POC) 10 uM” value is on record as 13.07 POC.
Consider `O=C(CCCCCCC(=O)Nc1ccc([C@H]2O[C@@H](CSc3nc(-c4ccccc4)c(-c4ccccc4)o3)C[C@@H](c3ccc(CO)cc3)O2)cc1)NO` [Tubacin], for which the “Non Amp - AMP (POC) 10 uM” value is on record as −15.59 POC.
Take `CN1CCc2c(c3ccccc3n2Cc2ccc(C(=O)NO)cc2)C1.Cl` [Tubastatin A HCl]: the “Non Amp - AMP (POC) 10 uM” value is 19.35 POC.
In the case of `CN1CCc2c(c3ccccc3n2Cc2ccc(C(=O)NO)cc2)C1` [Tubastatin A], the “Non Amp - AMP (POC) 10 uM” value is given as 15.75 POC.
Take `Cc1noc(C)c1-c1ccc(-c2nc3cnccn3c2NC(C)(C)C)cc1` [UMB-32]: the “Non Amp - AMP (POC) 10 uM” value is reported as −3.692 POC.
Consider `COc1cc2c(NC3CCN(C)CC3)nc(N3CCCN(C)CC3)nc2cc1OCCOCCN(C)C` [UNC0321 (trifluoroacetate salt)], for which the “Non Amp - AMP (POC) 10 uM” value came out at 0.4275 POC.
With `COc1cc2nc(N3CCCC3)nc(NCCCCCN3CCCC3)c2cc1OC` [UNC0379], the “Non Amp - AMP (POC) 10 uM” value amounted to 21.92 POC.
`COc1cc2c(NC3CCN(C(C)C)CC3)nc(C3CCCCC3)nc2cc1OCCCN1CCCC1` [UNC0638]: the “Non Amp - AMP (POC) 10 uM” value is on record as −12.13 POC.
For the compound `COc1cc2c(NC3CCN(CC4CCCCC4)CC3)nc(N3CCCN(C(C)C)CC3)nc2cc1OCCCN1CCCCC1` [UNC 0631], the “Non Amp - AMP (POC) 10 uM” value amounted to 34.73 POC.
As for `COc1cc2c(NC3CCN(C4CCCCC4)CC3)nc(N3CCCN(C(C)C)CC3)nc2cc1OCCCN1CCCCC1` [UNC 0646], the “Non Amp - AMP (POC) 10 uM” value is reported as 45.25 POC.
As to `O=C(COc1cccc2c(=O)[nH]ccc12)c1ccccc1` [UPF 1069], the “Non Amp - AMP (POC) 10 uM” value is listed as −6.052 POC.
As to `Cc1cc(Nc2cc(N3CCN(C)CC3)nc(Sc3ccc(NC(=O)C4CC4)cc3)n2)[nH]n1` [VX-680 (MK-0457, Tozasertib), Tozasertib], the “Non Amp - AMP (POC) 10 uM” value was −20.25 POC.
For `CCCC(CCC)C(=O)[O-].[Na+]` [Valproic acid sodium salt], the “Non Amp - AMP (POC) 10 uM” value was −19.36 POC.
On the same count and under the same terms, in the case of `COC(=O)c1ccc(N2CCN(C)CC2)c(NC(=O)c2cccc(OC)c2)c1` [WDR5 0103] it was 1.921 POC.
As to `COc1cc2ncnc(Nc3ccc(O)c(Br)c3)c2cc1OC` [WHI-P154], the “Non Amp - AMP (POC) 10 uM” value was −1.78 POC.
Turning to `COc1ccc(-n2c(SCCCN3C(=O)c4cccc5cccc(c45)C3=O)nnc2-c2ccncc2)cc1` [WIKI4], the “Non Amp - AMP (POC) 10 uM” value is recorded as 10.07 POC.
Take `C[C@H](NC(=O)/C(C#N)=C/c1cccc(Br)n1)c1ccccc1` [WP1066]: the “Non Amp - AMP (POC) 10 uM” value amounted to 3.079 POC.
Turning to `CCC(=O)Nc1cccc(Oc2nc(Nc3ccc(N4CCN(C)CC4)cc3OC)ncc2Cl)c1` [WZ4003], the “Non Amp - AMP (POC) 10 uM” value was −24.51 POC.
`Oc1nc(-c2ccc(C(F)(F)F)cc2)nc2c1CSCC2` [XAV-939]: the “Non Amp - AMP (POC) 10 uM” value was −6.034 POC.
The same measure, in the same setting: to `O=C(Nc1ccc(-c2ccnc(Nc3ccc(N4CCOCC4)cc3)n2)cc1)C1CCCN1` (stereo not drawn) [XL019] belongs −14.18 POC.
On to `CC(C)c1cc(CNc2nc(Nc3cc(C4CC4)[nH]n3)cc(N3CCN(C)CC3)n2)on1` [XL228], for which the “Non Amp - AMP (POC) 10 uM” value stood at 17.3 POC.
For `CC(C)N(CCC(=O)c1ccc2ccccc2c1)Cc1ccccc1` [ZM 39923 HCl], the “Non Amp - AMP (POC) 10 uM” value was −4.611 POC.
In the case of `COc1cc2c(Nc3ccc(NC(=O)c4ccccc4)cc3)ncnc2cc1OCCCN1CCOCC1` [ZM 447439], the “Non Amp - AMP (POC) 10 uM” value stood at 0.5089 POC.
With `C=CC(=O)c1ccc2ccccc2c1` [ZM 449829], the “Non Amp - AMP (POC) 10 uM” value came to 4.711 POC.
As to `O=C([O-])CCC(O)C(=O)[O-].[Na+].[Na+]` (stereo not drawn) [a-hydroxyglutaric Acid (sodium salt), a-hydroxyglutaric Acid], the “Non Amp - AMP (POC) 10 uM” value was 3.785 POC.
With `O=P(O)(O)OC(CO)CO` [β-Glycerophosphate (sodium salt hydrate), β-Glycerophosphate], the “Non Amp - AMP (POC) 10 uM” value worked out at 2.069 POC.
In the case of AZD1152, the “Non Amp - AMP (POC) 10 uM” value was −6.485 POC.
Take CPI-455: the “Non Amp - AMP (POC) 10 uM” value is −8.682 POC.
Take Inauhzin: the “Non Amp - AMP (POC) 10 uM” value is listed as −0.3441 POC.
SNS-314 Mesylate: the “Non Amp - AMP (POC) 10 uM” value amounted to 1.355 POC.

Staying with this experiment, now noted: 10 uM, 48 hrs; average relative cell viability (vs 1% DMSO) of non-amplified cells (OVSAHO, CAOV3) minus that of MYC-HSF1 amplified cells (OVCAR8, OVCAR4); positive = greater response in amplified cells; 10 µM.
As to `Nc1nc2nc[nH]c2c(=S)[nH]1` [Thioguanine], the “Non Amp - AMP (POC) 10 uM” value came out at 9.104 POC.
For `C[C@@H]1CCN(C(=O)CC#N)C[C@@H]1N(C)c1ncnc2[nH]ccc12` [Tofacitinib (CP-690550) Citrate, Tofacitinib], the “Non Amp - AMP (POC) 10 uM” value was determined as 3.666 POC.
In the case of `C[C@@H]1CCN(C(=O)CC#N)C[C@@H]1N(C)c1ncnc2[nH]ccc12` [Tofacitinib (CP-690550, Tasocitinib), Tofacitinib], the “Non Amp - AMP (POC) 10 uM” value is −2.781 POC.
For the compound `CC(/C=C/C(=O)NO)=C\[C@@H](C)C(=O)c1ccc(N(C)C)cc1` [Trichostatin A], the “Non Amp - AMP (POC) 10 uM” value stood at 47.34 POC.
Turning to `CCCCNNC(=O)c1ccc(Br)cc1` [UF010], the “Non Amp - AMP (POC) 10 uM” value is 54.18 POC.
In the case of `COc1cc2c(NC3CCN(C)CC3)nc(N3CCCN(C)CC3)nc2cc1OCCCN(C)C` [UNC0224], the “Non Amp - AMP (POC) 10 uM” value stood at 7.132 POC.
Take `CCCC(CCC)C(=O)O` [Valproic acid]: the “Non Amp - AMP (POC) 10 uM” value was −3.268 POC.
Regarding `O=C(CCCCCCC(=O)Nc1ccccc1)NO` [Vorinostat (SAHA, MK0683), Vorinostat], the “Non Amp - AMP (POC) 10 uM” value is recorded as 37.32 POC.

Staying with this experiment, now noted: 10 uM, 48 hrs; average relative cell viability (vs 1% DMSO) of non-amplified cells (OVSAHO, CAOV3) minus that of MYC-HSF1 amplified cells (OVCAR8, OVCAR4); positive = greater response in amplified cells; dihydrochloride, 10 µM.
On to `C[C@]1(c2nc3c(C(N)=O)cccc3[nH]2)CCCN1` [Veliparib dihydrochloride], for which the “Non Amp - AMP (POC) 10 uM” value is on record as −2.841 POC.

The experiment is the same for the next values; noted with them: 10 uM, 48 hrs; average relative cell viability (vs 1% DMSO) of non-amplified cells (OVSAHO, CAOV3) minus that of MYC-HSF1 amplified cells (OVCAR8, OVCAR4); positive = greater response in amplified cells; listed as SAHA, 10 µM.
With `O=C(CCCCCCC(=O)Nc1ccccc1)NO` [Vorinostat (SAHA, MK0683), Vorinostat], the “Non Amp - AMP (POC) 10 uM” value is 44.79 POC.

The experiment is the same for the next values; noted with them: 10 uM, 48 hrs; average relative cell viability (vs 1% DMSO) of non-amplified cells (OVSAHO, CAOV3) minus that of MYC-HSF1 amplified cells (OVCAR8, OVCAR4); positive = greater response in amplified cells; listed as Trichostatin A (TSA), 10 µM.
Regarding `CC(/C=C/C(=O)NO)=C\[C@@H](C)C(=O)c1ccc(N(C)C)cc1` [Trichostatin A], the “Non Amp - AMP (POC) 10 uM” value turned out to be 28.28 POC.

Staying with this experiment, now noted: 10 uM, 48 hrs; average relative cell viability (vs 1% DMSO) of non-amplified cells (OVSAHO, CAOV3) minus that of MYC-HSF1 amplified cells (OVCAR8, OVCAR4); positive = greater response in amplified cells; listed as UF 010, 10 µM.
Take `CCCCNNC(=O)c1ccc(Br)cc1` [UF010]: the “Non Amp - AMP (POC) 10 uM” value amounted to 21.86 POC.

The same experiment, now with this note: 10 uM, 48 hrs; average relative cell viability (vs 1% DMSO) of non-amplified cells (OVSAHO, CAOV3) minus that of MYC-HSF1 amplified cells (OVCAR8, OVCAR4); positive = greater response in amplified cells; listed as UNC 0224, 10 µM.
Take `COc1cc2c(NC3CCN(C)CC3)nc(N3CCCN(C)CC3)nc2cc1OCCCN(C)C` [UNC0224]: the “Non Amp - AMP (POC) 10 uM” value is −1.296 POC.

Staying with this experiment, now noted: listed as UNC0642, 10 µM.
`COc1cc2c(NC3CCN(C(C)C)CC3)nc(N3CCC(F)(F)CC3)nc2cc1OCCCN1CCCC1` [UNC 0642]: the “Non Amp - AMP (POC) 10 uM” value is reported as −5.587 POC.
